Source: patent US7629318B2, “Immunosuppressant compounds, methods and uses related thereto” (priority 2002, dated 2009)
Values joined by “and” are separate entries in the source; they are usually repeats but may differ in a detail not shown here. Identical values can stand only once. Like-named read-outs stand apart in the source and are kept apart here. Square brackets hold non-standard residues; d marks the D form. Peptide text beside a SMILES is read from it. * marks the point of attachment. N(Me)CH2CH2Ph = CN(CCc1ccccc1)*; Tic = O=C(O)[C@@H]1Cc2ccccc2CN1; Cha = N[C@@H](CC1CCCCC1)C(=O)O; X4 = OCCOCCN(CCc1ccccc1)*; Nle = CCCC[C@H](N)C(=O)O; X2 = OCCOCCN(Cc1ccccc1)*; X6 = OCCN(CCc1ccccc1)*

Experiments:
[1] = biological target: Cathepsin B1 (EC 3.4.22.1 from bovine spleen) (Bos taurus, UniProt P07688); conditions: for Stability (Arbitrary units) Cath B 4 h: Cathepsin B
[2] = biological target: DR1 (DRA1*0101 DRB1*0101) (Homo sapiens, UniProt P01903+P01911, A100R/D57E/F55L/F60I/F76Y/I96L/L162R/M171V/P40L/Q125E/R42F/V115G/Y59C); experiment: Competitive binding to MHC-II protein DR1; conditions: Protein binding IC50 (nM) 0101, 0101
Protocol: (§1) Interaction mixtures lacking the peptidomimetic compound and both peptide mimetic compound and MHC-II were used as positive and negative controls, respectively. All interaction mixtures were set up in duplicates and were incubated for 16 hours at room temperature.
(§2) After washing with PBS, 60 μl of the MHC-II-compound interaction mixtures were transferred from the interaction plate to the appropriate wells of the capture plate and incubated for 2 h at 4° C. The wells were washed six times with 200 μl/well of cooled (4 to 8° C.) 1×DELFIA wash (Wallac-ADL-GmbH, Freiburg), incubated with 100 μl of cooled Europium-streptavidin conjugate (Wallac-ADL-GmbH, Freiburg; diluted 1/1000 with DELFIA assay buffer) for 30 minutes at 4° C., again washed six times with cooled 1×DELFIA wash and, finally, incubated with 200 μl cooled DELFIA enhancement solution (Wallac-ADL-GmbH, Freiburg) for one hour at room temperature before reading the time-resolved europium fluorescence at λex Eu^3+: 340 nm and λem Eu^3+: 613 (615) nm (Wallac Victor^2 1420 Multilabel Counter, Wallac-ADL-GmbH, Freiburg).

[3] = biological target: DR4Dw14 (DRA1*0101 DRB1*0404) (Homo sapiens, UniProt P01903+P01911, A100R/A169T/F76Y/I96L/K127E/L162R/M171V/N62H/P40V/Q125Y/R42H/S133A/S149N/S66Y/V209L/W38E); experiment: Competitive binding to MHC-II protein DR4Dw14
Protocol: as §1, §2

[4] = Stability of compounds in rat blood plasma; format: in vitro ADME
Protocol: (§3) The stability of the peptidomimetic compounds was determined in rat (Charles River Laboratories, Sulzfeld), mouse (Charles River Laboratories, Sulzfeld) and human (Bayerisches Rotes Kreuz, München) blood plasma (E. R. Garrett and M. R. Gardner, J Pharmaceutical Sciences 71 (1982) 14-25).
(§4) Compound stock solutions were diluted into blood plasma to give a final compound concentration of 5 μM and the mixtures were incubated at 37° C. At 0, 6 and 24 hours 1 ml samples were drawn and the plasma proteins were precipitated by the addition of 3 ml acetonitrile p.a. and whirlmixing. The precipitate was pelleted by centrifugation at 2000 g for 5 minutes. The supernatant was evaporated off to dryness and the residue was reconstituted in 400 μl 50% acetonitrile, 0.1% TFA in water.
(§5) PBS controls were prepared for unstable compounds accordingly.

[5] = Stability of compounds in mouse blood plasma; format: in vitro ADME
Protocol: as §3, §4, §5

[6] = Stability of compounds in human blood plasma; format: in vitro ADME
Protocol: as §3, §4, §5

[7] = biological target: Cathepsin D (EC 3.4.23.5 from bovine spleen) (Bos taurus, UniProt P80209)
Protocol: The stability of the peptidomimetic compounds towards lysosomal degradation was examined by incubation with Cathepsin B1 (EC 3.4.22.1 from bovine spleen; Sigma-Aldrich, Taufkirchen; dissolved at 10000 U/l in ddH2O) and D (EC 3.4.23.5 from bovine spleen; Sigma-Aldrich, Taufkirchen; dissolved at 10000 U/l in ddH2O) for four hours at 37° C. using a compound concentration of 50 μM and an enzyme/substrate ratio of 0.4 U/μmol. The samples contained 25 ppm 4-isopropyl benzyl alcohol (IPBA; Sigma-Aldrich, Taufkirchen) as internal standard.
Assay buffer was prepared by adding 35 μl of a 1% IPBA in DMSO solution and 28 μl of a 10000 U/l Cathepsin B1 or Cathepsin D stock solution to 14 ml of 100 mM sodium acetate, 1 mM EDTA, 1 mM DTT, pH 5.00 or 100 mM sodium acetate, pH 4.50, respectively. 8.8 μl of a 5 mM (or 4.4 μl of a 10 mM) compound stock solution (in 10% DMSO/water) were placed into a 1.5 ml Eppendorf tube. The reaction was started by adding 875 μl fully supplemented assay buffer to each tube, whirlmixing and incubation at 37° C. At 0 and 4 hours 400 μl samples were taken and the enzyme was inactivated by addition of 40 μl […] TFA aq. The samples were kept frozen at −20° C. until analysis by RP-HPLC (200 μl injection volume; Nucleosil 100-5 C18, 12.5×4.6 cm; Gradient: 20-50% acetonitrile in 30 min).
Compounds co-eluting with the internal standard during RP-HPLC analysis were tested without the standard as Example 16.

[8] = system: T-cell proliferation, DR14-LN
[9] = biological target: DR4Dw4 (DRA1*0101 DRB1*0401) (Homo sapiens, UniProt P01903+P01911, A100K/A169T/F76Y/I96L/K127E/L162R/M171V/N62H/P40V/Q125Y/R42H/S133A/S149N/S66Y/V115G/V209L/W38E); experiment: Competitive binding to MHC-II protein DR4Dw4
Protocol: as §1, §2

[10] = within 4 hours, 37° C., enzyme activity control
[11] = 0404, read-out: Protein binding IC50 (nM) 0404

Row | SMILES | IC50 [2] | IC50 [3, 11] [nM] | Stability (Arbitrary units) Rat 6 h [4] [Arbitrary units] | Stability (Arbitrary units) Rat 24 h [4] [Arbitrary units] | Stability (Arbitrary units) Mouse 6 h [5] [Arbitrary units] | Stability (Arbitrary units) Mouse 24 h [5] [Arbitrary units] | Stability (Arbitrary units) Human 6 h [6] [Arbitrary units] | Stability (Arbitrary units) Human 24 h [6] [Arbitrary units] | Stability (Arbitrary units) Cath D 4 h [7] [Arbitrary units] | Stability (Arbitrary units) Cath B 4 h [1] [Arbitrary units] | IC50 [9] [µM] | also measured
1 | CSCC[C@H](NC(=O)[C@H](C)NC(=O)[C@H](CCCN=C(N)N)NC(=O)[C@H](CC1CCCCC1)NC(C)=O)C(=O)N[C@@H](C)C(=O)N[C@@H](CO)C(=O)N[C@@H](CC(C)C)C(N)=O [Compound P3, Ac-Cha-RAMASL-NH2, reference compound] (Ac-[Cha]RAMASL-NH2) | – | – | – | – | – | – | – | – | – | – | – | degradation by Cathepsin B1 [1, 10]: completely degraded
2 | CSCC[C@H](NC(=O)[C@@H]1Cc2ccccc2CN1C(=O)[C@H](CCCNC(=N)N)NC(=O)[C@H](CC1CCCCC1)NC(C)=O)C(=O)N(C)CCc1ccccc1 [Compound P84, Ac-Cha-Arg-Tic-Met-N(Me)CH2CH2Ph] (Ac-[Cha]R[Tic]M-{N(Me)CH2CH2Ph}) | 900 nM | 14000 | 104 | 99 | 111 | 53 | 131 | 131 | 101 | 69 | – | –
3 | CSCC[C@H](NC(=O)[C@@H]1Cc2ccccc2CN1C(=O)[C@H](CCCNC(=N)N)NC(=O)[C@H](CC1CCCCC1)NC(C)=O)C(=O)N(CCOCCO)Cc1ccccc1 [Compound P99, Ac-Cha-Arg-Tic-Met-N(Bn)CH2CH2OCH2CH2OH] (Ac-[Cha]R[Tic]M-X2) | 690 nM and 560 nM | 1900 | 80 | 62 | 71 | 13 | 104 | – | 107 | 106 | – | Immunsupressive assays DR14-LN (Max) % Inhibition ([8]; maximal inhibition): 100%; IC50 ([8]; read-out: Immunsupressive assays DR14-LN (IC50)): 105 µM
4 | CCCC[C@H](NC(=O)[C@@H]1Cc2ccccc2CN1C(=O)[C@H](CCCNC(=N)N)NC(=O)[C@H](CC1CCCCC1)NC(C)=O)C(=O)N(CCO)CCc1ccccc1 [Compound P81, Ac-Cha-Arg-Tic-Nle-N(CH2CH2OH)CH2CH2Ph] (Ac-[Cha]R[Tic][Nle]-X6) | 3300 nM | 20000 | 88 | 76 | 107 | 70 | 104 | 109 | 99 | 99 | 22 | –
5 | CSCC[C@H](NC(=O)[C@@H]1Cc2ccccc2CN1C(=O)[C@H](CCCNC(=N)N)NC(=O)[C@H](CC1CCCCC1)NC(C)=O)C(=O)N(CCOCCO)CCc1ccccc1 [Compound P96, Ac-Cha-Arg-Tic-Met-N(CH2CH2Ph)CH2CH2OCH2CH2OH] (Ac-[Cha]R[Tic]M-X4) | 1000 nM | – | – | – | – | – | – | – | 106 | 91 | 5.9 | IC50 ([3]; Protein binding IC50 (nM) 0404, 0404): 7400 nM; Stability (Arbitrary units) Rat 6 h ([4]; rat plasma, 6 h): 83 Arbitrary units; Stability (Arbitrary units) Rat 24 h ([4]; rat plasma, 24 h): 45 Arbitrary units; Stability (Arbitrary units) Mouse 6 h ([5]; mouse plasma, 6 h): 108 Arbitrary units; Stability (Arbitrary units) Mouse 24 h ([5]; mouse plasma, 24 h): 82 Arbitrary units; Stability (Arbitrary units) Human 6 h ([6]; human plasma, 6 h): 117 Arbitrary units; Stability (Arbitrary units) Human 24 h ([6]; human plasma, 24 h): 64 Arbitrary units
6 | CSCC[C@H](NC(=O)[C@@H]1Cc2ccccc2CN1C(=O)[C@H](CCCNC(=N)N)NC(=O)[C@H](CC1CCCCC1)NC(C)=O)C(=O)N(CCO)CCc1ccccc1 [Compound P85, Ac-Cha-Arg-Tic-Met-N(CH2CH2OH)CH2CH2Ph] (Ac-[Cha]R[Tic]M-X6) | 1800 nM | 31000 | 111 | 71 | 98 | 57 | – | 129 | 104 | 108 | 13 | –
7 | CC[C@H](C)[C@H](NC(=O)CNC(=O)[C@@H](NC(=O)[C@H](Cc1ccccc1)NC(=O)[C@H](CC(C)C)NC(=O)[C@H](CO)NC(=O)[C@H](CC(N)=O)NC(=O)[C@H](C)NC(=O)[C@H](CCCCN)NC(=O)[C@@H](NC(=O)[C@H](Cc1ccc(O)cc1)NC(=O)[C@@H](N)CCC(N)=O)[C@@H](C)CC)[C@@H](C)CC)C(=O)N[C@H](C(=O)N[C@@H](CCC(=O)O)C(=O)N[C@@H](CC(C)C)C(=O)N[C@@H](CCCCN)C(=O)O)[C@@H](C)O [reference compound] (H-QYIKANSLFIGITELK-OH; N-terminus and C-terminus assumed) | – | – | – | – | – | – | – | – | – | – | – | degradation by Cathepsin D [7, 10]: completely degraded
